Among the data in patent publication US20260043061A1, “ENZYMATICALLY MEDIATED REACTIVE CRYSTALLIZATION OF STEVIOL GLYCOSIDES” (Arzeda Corp., priority 2022, published 2026) are Solubility values, retold here.

The nature of this data set: Solubility of select steviol glycosides at room temperature. The class given is physicochemical. To be noted: in water, some species may not be completely pure. From the text: Pure steviol glycosides are sparingly soluble in water. Solubility measurements may reflect the true thermodynamic solubility or a short-term kinetic solubility. The kinetic solubility value occurs when an isomeric form has been prepared that is not thermodynamically stable at long time scales yet has higher solubility at short times scales. A few steviol glycoside species have a free carboxylic acid group. These species tend to have higher solubility. Nevertheless, steviol glycosides are generally poorly soluble in water, as shown in Table 3 (certain measurements are for species that may not be completely pure).

`C=C1C[C@@]23CC[C@H]4[C@@](C)(CCC[C@@]4(C)C(=O)O[C@@H]4O[C@H](CO)[C@@H](O)[C@H](O)[C@H]4O)[C@@H]2CC[C@]1(O[C@@H]1O[C@H](CO)[C@@H](O)[C@H](O[C@@H]2O[C@H](CO)[C@@H](O)[C@H](O)[C@H]2O)[C@H]1O[C@@H]1O[C@H](CO)[C@@H](O)[C@H](O)[C@H]1O)C3` [Reb A, rebaudioside A] had a Solubility of 0.46% wt %. In the case of `C=C1C[C@@]23CC[C@H]4[C@@](C)(CCC[C@@]4(C)C(=O)O[C@@H]4O[C@H](CO)[C@@H](O)[C@H](O)[C@H]4O)[C@@H]2CC[C@]1(O[C@@H]1O[C@H](CO)[C@@H](O)[C@H](O[C@@H]2O[C@H](CO)[C@@H](O)[C@H](O)[C@H]2O)[C@H]1O[C@@H]1O[C@H](CO)[C@@H](O)[C@H](O)[C@H]1O)C3` [Reb A hydrate, rebaudioside A] it was 0.10% wt %; in that of `C=C1C[C@@]23CC[C@H]4[C@@](C)(CCC[C@@]4(C)C(=O)O[C@@H]4O[C@H](CO)[C@@H](O)[C@H](O)[C@H]4O[C@@H]4O[C@H](CO)[C@@H](O)[C@H](O)[C@H]4O)[C@@H]2CC[C@]1(O[C@@H]1O[C@H](CO)[C@@H](O)[C@H](O[C@@H]2O[C@H](CO)[C@@H](O)[C@H](O)[C@H]2O)[C@H]1O[C@@H]1O[C@H](CO)[C@@H](O)[C@H](O)[C@H]1O)C3` [Reb D, rebaudioside D], 0.10% wt %; in that of `C=C1C[C@@]23CC[C@H]4[C@@](C)(CCC[C@@]4(C)C(=O)O[C@@H]4O[C@H](CO)[C@@H](O)[C@H](O)[C@H]4O)[C@@H]2CC[C@]1(O[C@@H]1O[C@H](CO)[C@@H](O)[C@H](O)[C@H]1O[C@@H]1O[C@H](CO)[C@@H](O)[C@H](O)[C@H]1O)C3` [Stevioside, stevioside], 0.44% wt %.

rebaudioside C [Reb C] returned a Solubility of 0.20% wt %. In the case of `C=C1C[C@@]23CC[C@H]4[C@@](C)(CCC[C@@]4(C)C(=O)O[C@@H]4O[C@H](CO)[C@@H](O)[C@H](O[C@@H]5O[C@H](CO)[C@@H](O)[C@H](O)[C@H]5O)[C@H]4O[C@@H]4O[C@H](CO)[C@@H](O)[C@H](O)[C@H]4O)[C@@H]2CC[C@]1(O[C@@H]1O[C@H](CO)[C@@H](O)[C@H](O[C@@H]2O[C@H](CO)[C@@H](O)[C@H](O)[C@H]2O)[C@H]1O[C@@H]1O[C@H](CO)[C@@H](O)[C@H](O)[C@H]1O)C3` [Reb M, rebaudioside M] it was 0.05% wt %; in that of `C=C1C[C@@]23CC[C@H]4[C@@](C)(CCC[C@@]4(C)C(=O)O[C@@H]4O[C@H](CO)[C@@H](O)[C@H](O)[C@H]4O)[C@@H]2CC[C@]1(O[C@@H]1O[C@H](CO)[C@@H](O)[C@H](O[C@@H]2O[C@H](CO)[C@@H](O)[C@H](O)[C@H]2O)[C@H]1O[C@@H]1O[C@H](CO)[C@@H](O)[C@H](O)[C@H]1O)C3` [Reb A anhydrous, rebaudioside A], 0.80% wt %. In turn, `C=C1C[C@@]23CC[C@H]4[C@@](C)(CCC[C@@]4(C)C(=O)O[C@@H]4O[C@H](CO)[C@@H](O)[C@H](O)[C@H]4O)[C@@H]2CC[C@]1(O[C@@H]1O[C@H](CO)[C@@H](O)[C@H](O[C@@H]2O[C@H](CO)[C@@H](O)[C@H](O)[C@H]2O)[C@H]1O[C@@H]1O[C@H](CO)[C@@H](O)[C@H](O)[C@H]1O)C3` [Reb A 97%, rebaudioside A] showed a Solubility of 0.80% wt %.
